One compound from article PMC12169104, “Towards the development of supramolecular self-associating amphiphiles as antibiofilm agents against Pseudomonas aeruginosa and Candida albicans biofilms” (Journal of Materials Chemistry. B, 2025) can be followed below.

In brackets after ≈: the same amount, converted by molar mass. Read-outs that look alike come from different tables or passages of the source. Where only a bound is given, the exact number is not on record here.

A word on the efflux ratio: it is a quotient of directional permeabilities that is used to spot active efflux. By Papp A→B is commonly meant how fast a substance crosses the layer from the apical side. One may read the Papp B→A as how fast a substance crosses the layer from the basolateral side. The solubility is the dissolved amount per volume that the medium holds.

Series [1] can be described thus: Bi-directional permeability in Caco-2 cell line. Type of series: in vitro ADME. Particulars: human; for recovery at 2 h, 5 µM: Caco-2, pH 7.4, SSA recovered from the assay after 2 hours. On the procedure: Bi-directional Permeability in Caco-2 Cell Line:
The bi-directional permeability in Caco-2 cell lines was determined by seeding cells onto an HTS Transwell plate. Cells were cultivated for 14-18 days in a cell culture incubator at 37°C, 5% CO2, 95% relative humidity. Cell culture medium was replaced every other day. To assess monolayer integrity the transepithelial electrical resistance (TEER) across the monolayer was measured using Millicell Epithelial volt-ohm meter prior to assay and Lucifer yellow (LY) fluorescence measurement post- […]
Test compound was prepared in DMSO and diluted in Hank’s Balanced Saline Solution (HBSS, pH 7.4) to a final concentration of 5 µM. Compound was added to the donor compartment of the transwell plate for both apical to basolateral (A>B) and basolateral to apical (B>A) measurements, with blank HBSS being added to the receiver compartment. The transwell plate was then incubated at 37°C, 5% […]
Samples were shaken at T=0 and T=2 hours to determine the concentration of initial donor sample, and the concentration of receiver and donor wells post-incubation, respectively. The samples were quenched with solvent containing internal standard (IS). The supernatant was mixed with an appropriate volume of ultra-pure water before LC-MS/MS analysis. […]
coupled to a Sciex 5500+ (AB Inc., Illinois). Separation of compounds was achieved using an XSelect HSS T3 XP (2.5µm,2.1x50mm) (Waters Ltd., Wilmslow) column at a temperature of 40°C. A binary mobile phase gradient at a flow rate of 0.7 mL/min was used. Initial LC conditions comprised of 95% solvent A (0.1% formic acid in water) and 5% solvent B (0.1% formic acid in acetonitrile). This was ramped to 95% solvent B at 1.2 minutes, held for 0.4 minutes and then immediately returned to initial conditions. Sample analysis was by electrospray ionisation combined with multiple reaction monitoring in positive ion mode. The ionspray voltage was 5500V.

The nature of series [2]: Metabolic stability in liver microsomes. Type of series: in vitro ADME, mouse. As for the experimental part:
(§1) Section S5: In vitro and in vivo studies
(§2) These studies were performed by Contract Research Organisation (CRO) Pharmaron. The methodology provided within the ESI is published within the express permission of this organisation.
(§3) The percentage of a compound recovered during the analysis process should be 100 %; any deviation from this value indicates experimental limitations such as unintended potential non-specific binding events to experimental equipment, solubility issues, etc.
(§4) In vitro Absorption, Distribution and Metabolism studies methods: […]
(§5) The ionisation
(§6) Kinetic Solubility Determination in PBS pH 7.4:
(§7) The stock solutions of test and control compounds were prepared in DMSO at 10 mM. From this a 300 µM solution was prepared in duplicate in 100 mM Phosphate Buffered Saline (PBS, pH 7.4 ± 0.1). These solutions were then shaken at 1100rpm for 2 hours at 25°C. […]
(§8) Metabolic Stability in Rat, Mouse and Human Liver Microsomes :
(§9) The metabolic stability of compounds at a concentration of 1 µM, in rat, mouse and human liver microsomes (BD Gentest, Franklin Lakes NJ) was measured following incubation with hepatic microsomes (0.5 mg of protein / mL) in the presence and absence of cofa ctor (NADPH) at 37 °C.
(§10) Aliquots of each incubation were removed at 0.5, 5, 15, 30 and 60 minutes. The reaction was stopped by the addition of cold acetonitrile containing analytical internal standard (IS). […]
For orientation: Liver microsomes are vesicles of endoplasmic reticulum, rich in cytochrome P450 enzymes.

The nature of series [3]: Kinetic solubility determination in PBS pH 7.4. Particulars: phosphate buffered saline, aqueous buffer, kinetic from dmso stock, PBS pH 7.4, 300 µM nominal, 2 hours at 25°C. The class given is physicochemical. As for the experimental part: as §1, §2, §3, §4, §5, §6
The stock solutions of test and control compounds were prepared in DMSO at 10 mM. From this a 300 µM solution was prepared in duplicate in 100 mM Phosphate Buffered Saline (PBS, pH 7.4 ± 0.1). These solutions were then shaken at 1100rpm for 2 hours at 25°C. Following incubation, the samples were filtered using a vacuum manifold. The filtrate was analysed and quantified against a standard of known concentration using liquid chromatography mass -spectrometry (LC -MS/MS). […]
coupled to a Sciex 4500 mass spectrometer (AB Inc., Illinois) Separation of compounds was achieved using an XSelect HSS T3 column (2.5µm, 50 x 2.1 mm) (Waters Ltd., Wilmslow) at a temperature of 40°C and a binary mobile phase gradient at a flow rate of 0.8 mL/min. […]

The nature of series [4]: Metabolic stability in liver microsomes. Type of series: in vitro ADME, rat. As for the experimental part:
as §1, §2, §3, §4, §5, §6, §7, §8, §9, §10

Series [5] can be described thus: Metabolic stability in liver microsomes. The class given is in vitro ADME, human. On the procedure: as §1, §2, §3, §4, §5, §6, §7, §8, §9, §10

Consider `O=C(O)CNc1c(Nc2ccc(C(F)(F)F)cc2)c(=O)c1=O` [SSA 5], for which the efflux ratio at 2 h, 5 µM in series [1] (Caco-2, pH 7.4) was above 73.9. For the same compound, the recovery at 2 h, 5 µM in series [1] (read-out: % Recovery (A-B)) is below 98.4%; in series [1] (read-out: % Recovery (B-A)), 82.6%. In series [1] (Caco-2, pH 7.4, apical to basolateral, 5 µM, 2 hours), this compound had an apparent permeability from apical to basolateral (Papp A→B) at 2 h, 5 µM below 0.06 ×10⁻⁶ cm/s. The Papp B→A at 2 h, 5 µM in series [1] (Caco-2, pH 7.4, basolateral to apical, 5 µM, 2 hours) came out at 4.24 ×10⁻⁶ cm/s. Also, the half-life at 1 µM was above 3.08 h in series [2] (liver microsomes, mouse microsomes, 1 µM, read-out: In vitro T1/2); above 3.08 h in series [4] (liver microsomes, rat microsomes, 1 µM, read-out: In vitro T1/2); above 3.08 h in series [5] (liver microsomes, human microsomes, 1 µM, read-out: In vitro T1/2). In addition, the “Hepatic Extraction Ratio (ER)” value is given as below 0.26 in series [2] (mouse), below 0.21 in series [4] (rat) and below 0.27 in series [5] (human). Besides, the solubility at 2 h in series [3] came out at 273 µM (≈ 85.8 µg/mL).
